From US20100160228A1, “METHOD FOR INHIBITING OR STIMULATING ANGIOGENESIS IN AN INDIVIDUAL” (VALTION TEKNILLINEN TUTKIMUSKESKUS, priority 2007, published 2010)

What was measured:
Format in all cases: cell-based, human
VEGFR2 [1] = assay: Immunoblot of phosphorylated VEGFR2 in HUVEC lysates; details: for effect on VEGFR2 phosphorylation in confluent cells: confluent HUVEC, FIG. 10A; for effect on VEGFR2 phosphorylation in confluent cells / effect of TAT peptides on VEGFR2 phosphorylation: peptide 200 nM
Procedure: FIG. 4. α1 integrin activates TCPTP and attenuates VEGFR2 signalling. (A) Serum-starved subconfluent HUVEC were treated for 1 h with α1 integrin cytoplasmic tail fusion peptide (α1TAT) or TAT-scramble control fusion peptide (ScrTAT) (both at 200 nM) followed by VEGF-induction (100 ng/ml, 15 min) where indicated. Cell lysates were resolved on SDS-PAGE and immunoblotted for phosphorylated VEGFR2 (or tubulin as a control). (B) HUVEC were treated as in (A) and VEGFR2 kinase activity (mean±SD, n=3) was measured from the cell lysates. **, p<0.01. (C) Recombinant, purified TCPTP was incubated with α1 or α2 cytoplasmic tail peptides (L-amino acids) or with α1 and scrambled TAT peptides (D-amino acids) and analyzed for phosphatase activity (mean±SD, n=3).
(§1) FIG. 10. […] (A) Serum-starved HUVEC were plated to confluency on gelatin and treated for 1 h with α1 integrin cytoplasmic tail fusion peptide (α1TAT) or TAT-scramble control fusion peptide (ScrTAT) (both at 200 nM) or not treated, followed by VEGF-induction (15 min) when indicated. Cell lysates were immunoblotted for phosphorylated VEGFR2 (or tubulin as a control). (B) Confluent HUVEC on gelatin were treated with VEGF in the presence or absence of α1TAT or ScrTAT peptide and the number of live cells was detected using WST-1 reagent (mean±SD, n=3). (C) α1TAT treatment has no effect on internalization of VEGFR2 in confluent HUVEC. HUVEC were plated to confluency on gelatin, stimulated or not with the TAT peptides (200 nM) and VEGF, and treated with trypsin on ice. Cells were lysed after inactivation of trypsin and the lysates were immunoblotted for detection of VEGFR2 protected from trypsin (=internalized pool). The intensity of VEGFR2 bands was quantitated using densitometry (a representative experiment out of 3 with similar results is shown).

VEGFR2 [2] = assay: VEGFR2 internalization assay in HUVEC (microscopy, cold trypsin protection); details: for effect on VEGFR2 internalization in confluent cells: confluent HUVEC, peptide 200 nM, FIG. 10C
Procedure: (§2) FIG. 3. TCPTP activity controls VEGF-dependent responses in endothelial cells. (A) HUVEC were transfected with the constitutively active TCPTP (TC37) or vector control (pCG), stimulated or not with VEGF, and stained for VEGFR2 (red) and nuclei (blue) after fixation and permeabilization. Arrows indicate VEGFR2 vesicles. (B) HUVEC were treated as in (A) and subjected to trypsin digestion on ice. VEGFR2 protected from trypsin (=internalized pool) was detected by immunoblotting. The intensities of VEGFR2 bands were quantified and are expressed relative to pCG-VEGF control. A representative experiment out of 2 with similar results is shown. (C) HUVEC were transfected with no oligo, siRNA against TCPTP or a control siRNA, and TCPTP expression was measured using immunoblotting. Cells were treated with 80 ng/ml VEGF and proliferation of sparse cells plated on gelatin was assayed after 16 h using BrdU-based assay (mean±SD; n=4-6; *, p<0.05). (D) HUVEC were transfected as in (A) and chemotaxis towards VEGF was measured using a Transwell assay for 4 hours. Cells adhering to the bottom of the filter were fixed and stained with crystal violet. Number of migrated cells was counted (mean±SEM, n=3).
FIG. 7. TCPTP activation through the cytoplasmic domain of α1 integrin inhibits internalization of VEGFR2. […] VEGFR2 staining in the perinuclear area of cells (mean±SEM, n=30) was analyzed from blinded samples using densitometry and scored from 0 to 4 (0=no staining, 4=highest expression). […] VEGFR2 protected from trypsin (=internalized pool) was detected by immunoblotting. The intensity of VEGFR2 bands was quantified using densitometry and expressed as arbitrary units. […]
FIG. 10. […] (B) Confluent HUVEC on gelatin were treated with VEGF in the presence or absence of α1TAT or ScrTAT peptide and the number of live cells was detected using WST-1 reagent (mean±SD, n=3). […] The intensity of VEGFR2 bands was quantitated using densitometry (a representative experiment out of 3 with similar results is shown).
VEGFR2 internalization assay. […] The amount of VEGFR2 in each sample was analyzed using immunoblotting.

HUVEC [3] = assay: VEGF-induced HUVEC proliferation assay; details: subconfluent HUVEC on gelatine, compared to no peptide treatment, n=3
Procedure: as §2, with “Cells were treated with 80 ng/ml VEGF and proliferation of sparse cells plated on gelatin was assayed after 16 h using BrdU-based assay (mean±SD; n=4-6; *, p<0.05).” left out, “Cells adhering to the bottom of the filter were fixed and stained with crystal violet.” left out
(§3) Cell proliferation and survival assays. The number of viable HUVEC was analyzed with WST-1 reagent (Roche). Cell proliferation was measured with BrdU assay (Cell proliferation ELISA Biotrak system, Amersham) from siRNA-transfected HUVEC grown in RPMI1640+1% FBS+2 mM L-glutamine supplemented with 80 ng/ml VEGF.

HUVEC [4] = assay: Survival of confluent HUVEC (WST-1); details: confluent HUVEC on gelatin, WST-1, FIG. 10B
Procedure: as §1, §3

Row | Sequence | effect on VEGFR2 phosphorylation in confluent cells (VEGFR2 [1]) | effect of TAT peptides on VEGFR2 phosphorylation (VEGFR2 [1]; subconfluent HUVEC, FIG. 4A) | effect on VEGFR2 internalization in confluent cells (VEGFR2 [2]) | inhibition of VEGF-induced proliferation (HUVEC [3]) [%] | effect on survival of HUVEC in confluent cells (HUVEC [4]) | VEGF-induced autophosphorylation of VEGFR2 at tyrosine 1214 (VEGFR2 [1]; subconfluent HUVEC, peptide 200 nM 1 h, VEGF 100 ng/ml 15 min, FIG. 4A) | internalization of VEGFR2 in HUVEC (VEGFR2 [2]; subconfluent HUVEC, peptide 200 nM 1 h, VEGF 100 ng/ml 15 min, FIG. 7)
1 | YGRKKRRQRRRLKGWRFKLKPKFKEMK (SEQ ID NO 8) [ScrTAT, reference compound] | no effects | induced a clear phosphorylation | no effects | 4±4 | no effects |  | 
2 | YGRKKRRQRRRWKLGFFKRPLKKKMEK (SEQ ID NO 3) [α1TAT] | no effects | effectively attenuated | no effects | 74±8 | no effects | markedly inhibited | specifically inhibited
